Measurements reported in US8933071B2, “Dimethyl fasudil for inducing polyploidization of megakaryocytes and for treating blood and bone marrow diseases and disorders” (Northwestern University, priority 2008, dated 2015).

Key:
[1] = tested on: human AMKL leukemic cells; assay: CFU-MK assay, bone marrow samples from patients with AMKL; assay type: cell-based; conditions: 5 μM, 14 days, AMKL patient bone marrow
Experimental: FIG. 8 illustrates that DMF blocks the growth of human AMKL leukemic cells. Mononuclear cells from patients with AMKL were cultured in methylcellulose in the presence of either DMSO or 5 μM of DMF.
(§1) Data with Patient Samples. Two lead compounds were tested on samples from both MPD (myeloproliferative disease) patients and AMKL (acute megakaryocytic leukemia) patients. […] Referring to FIG. 5, bone marrow mononuclear cells from a patient with ET were cultured with two doses of DMF for 10 days. […] Referring to FIG. 8, bone marrow samples from patients with AMKL were cultured in DMSO (control) or DMF (at 5 μM) for 14 days. Colonies were stained with anti-CD41 antibody and visualized by microcopy (not shown). Total numbers of CD41+ megakaryocyte colonies are shown.
AMKL Patient Specimens. Frozen bone marrow mononuclear cells of acute megakaryocytic leukemia (AMKL) were obtained from human patients with help from the Children's Oncology Group (COG). After thawing, cells were resuspended in IMDM media without serum. The cells were stained with 0.4% trypan blue solution for 5 minutes and live cells were counted. Live cells were assayed for leukemic potential in a CFU-MK assay (details below).
(§2) CFU-MK (Colony forming units-megakarvocvtes) assay. […] Slides were scored microscopically, and megakaryocyte colonies were defined as colonies with at least three megakaryocytes.

[2] = tested on: megakaryocyte colonies (CFU-MK) from MPD bone marrow; assay: CFU-MK assay, bone marrow mononuclear cells from a patient with ET; assay type: cell-based, human; conditions: two doses, 10 days
Experimental: FIG. 5 illustrates that the Rho kinase inhibitor dimethylfasudil (DMF) (also know as “ROCK inhibitor”) blocks formation of megakaryocyte colonies (CFU-MK) by bone marrow from patients with Myeloproliferative Disease (MPD).
as §1
MPDs Patient Specimens. Mononuclear cells from bone marrow of patients were obtained by informed consent from patients at Northwestern Feinberg School of Medicine. […] The cells were stained with 0.4% trypan blue solution for 5 minutes and live cells were counted. […]
as §2

[3] = tested on: CD41+ megakaryocyte fraction; assay: Polyploidization of primary human megakaryocytes (CD34+ cells cultured with TPO), CD41+ fraction; assay type: cell-based; conditions: CD34+ cells cultured with TPO 12 days, compound added after 9 days
Experimental: FIG. 4 illustrates that DMF induces polyploidization of normal human megakaryocytes and that its activity is restricted to the CD41+ population. Human CD34+ cells were cultured with TPO for 12 days and then fixed and stained with DAPI. DMSO or DMF were added to the culture after 9 days. DNA content was then assessed by flow cytometry. Numbers above the bar indicate % of cells ≧8N.
In collaboration with the Broad Institute, a high throughput screen for small molecules was conducted to identify small molecules that preferentially induce polyploidization or differentiation of megakaryocytes. We screened 10,000 compounds from the Broad's extensive collection of small molecules (including known bioactives, kinase and HDAC inhibitors, and natural products) to identify inducers of megakaryocyte polyploidization. The screen was performed in the following manner: 1) 4,000 CMK (human megakaryocytic leukemia) cells were plated into each well of a 384-well plate, 2) 100 n1 of compounds (yielding a final concentration of 10 μM) were pinned into the wells, 3) plates were incubated at 37° C. for 72 hours, 4) cells were fixed and stained with Hoescht, and 5) plates were imaged using an ImageXpressMICRO high content imager with 20× objective. Nine images per well were collected. 6) Data were analyzed using both MetaXpress software and “Cell Profiler,” software designed at MIT and the Broad Institute. […]

dimethylfasudil [DMF]
growth of human leukemia cells (CD41+ megakaryocyte colonies) [1]: potently blocked growth
formation of aberrant megakaryocyte colonies (CFU-MK) [2]: potently blocked formation
polyploidization of primary human megakaryocytes [3]: potently induced polyploidization
